≈ marks a conversion by molar mass, not a printed value.
Tested on: Staphylococcus aureus Smith
Experiment: MIC assay, modified agar dilution (CLSI), S. aureus Smith
Assay type: cell-based
Details: agar dilution, 35° C., 16-20 hr, lowest concentration that completely inhibited growth; for MIC: Staphylococcus aureus, read-out: S_aureus_Smith_WT_MIC
Protocol: The potency of antibacterial agents was measured using the Minimal Inhibitory Concentration (MIC) assay. The assay measures the ability of test agents to inhibit the growth of bacteria on agar-containing medium.
The bacterial test strains used were exemplified by Staphylococcus aureus Smith, Enterococcus faecium A2373, Streptococcus pneumoniae IID554, and Escherichia coli ATCC 25922. All strains were maintained as frozen stocks held at −80° C. in skim milk. Other bacterial test strains are well known to those skilled in the art and can be used for testing.
Mueller Hinton Agar (MHA BBL; Becton Dickinson and Company, Sparks, Md.) was used as the medium. MHA was supplemented with 5% defibrinated horse blood (DHB; Nippon Biotest Laboratories inc.) to support the growth of S. pneumoniae and E. faecium.
MIC values were determined using a modified agar dilution procedure described by the Clinical and Laboratory Standards Institute (CLSI; Methods for Dilution Antimicrobial Susceptibility Tests for Bacteria That Grow Aerobically; Approved Standard—Eighth Edition. CLSI document M07-A8 [ISBN 1-56238-689-1]. Clinical and Laboratory Standards Institute, 940 West Valley Road, Suite 1400, Wayne, Pa. 19087-1898 USA, 2009).
Stock solutions (6.4 mgmL) of test compounds were prepared in 100% ultrapure dimethyl sulfoxide (DMSO; source) on the day of the assay. Subsequent serial dilutions were performed to generate solutions with concentrations ranging from 6.4 to 0.0002 mgmL in 100% DMSO.
Agar medium containing test compound was prepared by adding the dilutions of antimicrobial solution to molten MHA at a temperature of 45-50° C. The agar and antimicrobial solution were mixed thoroughly, poured into petri dishes, and allowed to solidify at room temperature. The final concentration of test compounds in the MHA medium ranged from 128 to 0.001 μg/mL with two-fold dilutions. MHA plates lacking antibacterial compound were used for growth controls.
Prior to susceptibility testing, the bacterial isolates were removed from frozen storage, thawed at room temperature, sub-cultured to MHA medium and incubated overnight at 35° C. S. pneumoniae and E. faecium were subcultured on MHA supplemented with 5% DHB at 35° C. with […]. Colonies from each plate were suspended in normal saline. This suspension was adjusted to the turbidity of a 0.5 McFarland standard, 1-2×10^8 colony forming units (CFU) per mL, and diluted 100-fold to 1-2×10^6 CFUmL.
Suspensions of bacterial cultures were applied to the surface of MHA plates containing test compound as well as to a growth control plate lacking test compound using an inoculum-replicating device with 4 mm pins. The replicating device applied 5 uL of the bacterial suspension such that each spot contained approx. 1×10^4 CFU. Plates were dried for about 40 min and incubated at 35° C. for 16-20 hr prior to scoring.

MIC [µg/mL] | SMILES | S_aureus_Smith_WT_MIC [µg/mL] | other results
– | COc1cnc2ccc(=O)n(CC(O)C34CCC(NCc5ccc6c(n5)NC(=O)CO6)(CC3)CO4)c2c1 (single isomer, unassigned) [Example 54b, 6-(((1-(1-hydroxy-2-(7-methoxy-2-oxo-1,5-naphthyridin-1(2H)-yl)ethyl)-2-oxabicyclo[2.2.2]octan-4-yl)amino)methyl)-2H-pyrido[3,2-b][1,4]oxazin-3(4H)-one] | 0.0160 | –
– | O=C1COc2ccc(CNC34CCC(C(O)Cn5c(=O)ccc6ncc(F)cc65)(CC3)OC4)nc2N1 (single isomer, unassigned) [Example 55a, 6-((1-(2-(7-Fluoro-2-oxo-1,5-naphthyridin-1(2H)-yl)-1-hydroxyethyl)-2-oxabicyclo[2.2.2]octan-4-ylamino)methyl)-2H-pyrido[3,2-b][1,4]oxazin-3(4H)-one] | 1.00 | –
– | O=C1COc2ccc(CNC34CCC(C(O)Cn5c(=O)ccc6ncc(F)cc65)(CC3)OC4)nc2N1 (single isomer, unassigned) [Example 55b, 6-((1-(2-(7-fluoro-2-oxo-1,5-naphthyridin-1(2H)-yl)-1-hydroxyethyl)-2-oxabicyclo[2.2.2]octan-4-ylamino)methyl)-2H-pyrido[3,2-b][1,4]oxazin-3(4H)-one] | 0.250 | –
– | COc1ccc2ncc(F)c(CCC34CCC(NCc5ccc6c(n5)NC(=O)C(C)O6)(CC3)CO4)c2n1.Cl (single isomer, unassigned) [Example 100a, 6-((1-(2-(3-Fluoro-6-methoxy-1,5-naphthyridin-4-yl)ethyl)-2-oxabicyclo[2.2.2]octan-4-ylamino)methyl)-2-methyl-2H-pyrido[3,2-b][1,4]oxazin-3(4H)-one Hydrochloride] | – | S_aureus_Smith_WT_MIC (Hydrochloride): 0.250 µg/mL
– | COc1ccc2ncc(F)c(CCC34CCC(NCc5ccc6c(n5)NC(=O)C(C)O6)(CC3)CO4)c2n1.Cl (single isomer, unassigned) [Example 100b, 6-((1-(2-(3-Fluoro-6-methoxy-1,5-naphthyridin-4-yl)ethyl)-2-oxabicyclo[2.2.2]octan-4-ylamino)methyl)-2-methyl-2H-pyrido[3,2-b][1,4]oxazin-3(4H)-one Hydrochloride] | – | S_aureus_Smith_WT_MIC (Hydrochloride): 0.0630 µg/mL
0.031 (≈ 0.0624 µM) | COc1ccc2ncc(F)c(CC(O)C34CCC(NCc5cc6c(cn5)OCCO6)(CC3)CO4)c2n1 (single isomer, unassigned) [Example 132, 1-(4-((2,3-Dihydro-[1,4]dioxino[2,3-c]pyridin-7-yl)methylamino)-2-oxabicyclo[2.2.2]octan-1-yl)-2-(3-fluoro-6-methoxy-1,5-naphthyridin-4-yl)ethanol] | – | –
1 (≈ 1.93 µM) | COc1ccc2ncc(F)c(CC(O)C34CCC(NCc5cc6ccccc6n(C)c5=O)(CC3)CO4)c2n1 (single isomer, unassigned) [Example 133, 3-((1-(2-(3-Fluoro-6-methoxy-1,5-naphthyridin-4-yl)-1-hydroxyethyl)-2-oxabicyclo[2.2.2]octan-4-ylamino)methyl)-1-methylquinolin-2(1H)-one] | – | –
0.063 (≈ 0.124 µM) | COc1ccc2ncc(F)c(CC(O)C34CCC(NCc5cc6c(cn5)OCC(=O)N6)(CC3)CO4)c2n1 (single isomer, unassigned) [Example 134, 7-((1-(2-(3-Fluoro-6-methoxy-1,5-naphthyridin-4-yl)-1-hydroxyethyl)-2-oxabicyclo[2.2.2]octan-4-ylamino)methyl)-1H-pyrido[3,4-b][1,4]oxazin-2(3H)-one] | – | –
0.031 (≈ 0.0588 µM) | COc1ccc2ncc(F)c(CC(O)C34CCC(NCc5nc6c(cc5F)OCC(=O)N6)(CC3)CO4)c2n1 (single isomer, unassigned) [Example 135, 7-Fluoro-6-((1-(2-(3-fluoro-6-methoxy-1,5-naphthyridin-4-yl)-1-hydroxyethyl)-2-oxabicyclo[2.2.2]octan-4-ylamino)methyl)-2H-pyrido[3,2-b][1,4]oxazin-3(4H)-one] | – | –
– | COc1ccc2ncc(F)c(C(C)C(O)C34CCC(NCc5ccc6c(n5)NC(=O)CO6)(CC3)CO4)c2n1 (single isomer, unassigned) [Example 151a, 6-((1-(2-(3-Fluoro-6-methoxy-1,5-naphthyridin-4-yl)-1-hydroxypropyl)-2-oxabicyclo[2.2.2]octan-4-ylamino)methyl)-2H-pyrido[3,2-b][1,4]oxazin-3(4H)-one] | 32.0 | –
– | COc1ccc2ncc(F)c(C(C)C(O)C34CCC(NCc5ccc6c(n5)NC(=O)CO6)(CC3)CO4)c2n1 (single isomer, unassigned) [Example 151b, 6-((1-(2-(3-Fluoro-6-methoxy-1,5-naphthyridin-4-yl)-1-hydroxypropyl)-2-oxabicyclo[2.2.2]octan-4-ylamino)methyl)-2H-pyrido[3,2-b][1,4]oxazin-3(4H)-one] | 4.00 | –
0.75 | COc1ccc2ncc(F)c(C[C@@H](O)C34CCC(NCc5cc6c(cn5)OCCO6)(CC3)CC4)c2n1.Cl (single isomer, unassigned) [Example 200] | – | –
0.06 | COc1ccc2ncc(F)c(C[C@H](O)C34CCC(NCc5cc6c(cn5)OCCO6)(CC3)CC4)c2n1.Cl (single isomer, unassigned) [Example 201] | – | –
2 (≈ 4.09 µM) | N#Cc1cnc2ccc(=O)n(CC(O)C34CCC(NCc5cc6c(cn5)OCCO6)(CC3)CO4)c2c1 (single isomer, unassigned; enantiomer a) [Example 159, 5-(2-(4-((2,3-Dihydro-[1,4]dioxino[2,3-c]pyridin-7-yl)methylamino)-2-oxabicyclo[2.2.2]octan-1-yl)-2-hydroxyethyl)-6-oxo-5,6-dihydro-1,5-naphthyridine-3-carbonitrile (Enantiomer A)] | – | –
0.25 (≈ 0.497 µM) | N#Cc1cnc2ccc(=O)n(CC(O)C34CCC(NCc5ccc6c(n5)NC(=O)CO6)(CC3)CO4)c2c1 (single isomer, unassigned; enantiomer a) [Example 160, 5-(2-Hydroxy-2-(4-((3-oxo-3,4-dihydro-2H-pyrido[3,2-b][1,4]oxazin-6-yl)methylamino)-2-oxabicyclo[2.2.2]octan-1-yl)ethyl)-6-oxo-5,6-dihydro-1,5-naphthyridine-3-carbonitrile (Enantiomer A)] | – | –
0.063 (≈ 0.106 µM) | COC(=O)C1CC1COc1ccc2ncc(F)c(CCC34CCC(NCc5ccc6c(n5)NC(=O)CO6)(CC3)CO4)c2n1 (single isomer, unassigned; enantiomer a) [Example 227, Methyl 247-Fluoro-8-(2-(4-((3-oxo-3,4-dihydro-2H-pyrido[3,2-b][1,4]oxazin-6-yl)methylamino)-2-oxabicyclo[2.2.2]octan-1-yl)ethyl)-1,5-naphthyridin-2-yloxy)methyl)cyclopropanecarboxylate (Enantiomer A)] | – | –
– | N#Cc1cnc2ccc(=O)n(CC(O)C34CCC(NCc5cc6c(cn5)OCCO6)(CC3)CO4)c2c1 (single isomer, unassigned; enantiomer b) [Example 161, 5-(2-(4-((2,3-Dihydro-[1,4]dioxino[2,3-c]pyridin-7-yl)methylamino)-2-oxabicyclo[2.2.2]octan-1-yl)-2-hydroxyethyl)-6-oxo-5,6-dihydro-1,5-naphthyridine-3-carbonitrile (Enantiomer B)] | 2.00 | –

From patent publication US20140243302A1, “BRIDGED BICYCLIC COMPOUNDS FOR THE TREATMENT OF BACTERIAL INFECTIONS” (priority 2011, published 2014)
